Assay results from patent US20230407243A1, “GENETIC PLATFORM TO INVESTIGATE THE FUNCTIONS OF BACTERIAL DRUG EFFLUX PUMPS” (priority 2022, published 2023).

Columns and labels:
Format in all cases: cell-based, Escherichia coli
[1] = test system: E. coli EKO-35; test: microbe, parasite or virus in culture
How it was run: (§1)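 Steps: LB overnight culture at 37 °C; resuspension in PBS to OD600 ~1.0; 1/2000 dilution in MHB II; addition to 2-fold serial compound dilutions (duplicate); 18 h shaking incubation at 37 °C; OD600 read, with pre-read subtracted.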

[2] = test system: E. coli ΔtolC; test: microbe, parasite or virus in culture; conditions: technical duplicate
How it was run: as §1

[3] = test system: wild-type E. coli K-12 str. BW25113; test: microbe, parasite or virus in culture; conditions: technical duplicate
How it was run: as §1

[4] = test system: EKO-35 araC::acrBD408A; test: MIC susceptibility profiling, efflux platform
How it was run: as §1

[5] = test system: EKO-35 araC::acrB; test: MIC susceptibility profiling, efflux platform
How it was run: as §1

[6] = test system: EKO-35 araC::acrD; test: MIC susceptibility profiling, efflux platform
How it was run: as §1

[7] = test system: EKO-35 araC::acrEF; test: MIC susceptibility profiling, efflux platform
How it was run: as §1

[8] = test system: EKO-35 araC::emrAB; test: MIC susceptibility profiling, efflux platform
How it was run: as §1

[9] = test system: EKO-35 araC::emrKY; test: MIC susceptibility profiling, efflux platform
How it was run: as §1

[10] = test system: EKO-35 araC::macAB; test: MIC susceptibility profiling, efflux platform
How it was run: as §1

[11] = test system: EKO-35 araC::mdtBC; test: MIC susceptibility profiling, efflux platform
How it was run: as §1

[12] = test system: EKO-35 araC::mdtEF; test: MIC susceptibility profiling, efflux platform
How it was run: as §1

[13] = test system: EKO-35 araC::mexCD (MexCD from P. aeruginosa); test: MIC susceptibility profiling, efflux platform
How it was run: as §1

[14] = test system: wild-type (WT) K-12-Pore; test: microbe, parasite or virus in culture; conditions: technical duplicate
How it was run: (§2)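 MIC values come from background-corrected OD600 readings (pre-incubation OD subtracted) after 18 h at 37 °C and 900 rpm in MHB II. Compounds were tested in duplicate as 2-fold dilutions. The inoculum came from 18 h LB cultures adjusted to OD600 ~1.0 and diluted 1/2000, and the pore-bearing strains were vancomycin-checked beforehand.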

[15] = test system: ΔtolC-Pore; test: microbe, parasite or virus in culture; conditions: technical duplicate
How it was run: as §2

[16] = test system: EKO-35-Pore; test: MIC susceptibility profiling, porinated strain
How it was run: as §2

[17] = test system: EKO-35 araC::acrB Pore; test: MIC susceptibility profiling, porinated efflux platform
How it was run: as §2

[18] = test system: EKO-35 araC::mdtBC Pore; test: as above
How it was run: as §2

[19] = test system: EKO-35 araC::mdtEF Pore; test: as above
How it was run: as §2

[20] = Table 13A, non-porinated, technical duplicate
[21] = Table 13B, non-porinated, technical duplicate
[22] = Table 14A, porinated, technical duplicate

## O=C(NC(=O)N1CCc2c([nH]c3ccccc23)C1C(F)(F)F)c1ccccc1 (centres unmarked) [compound 13]
[1]; EKO-35 compared to EKO-35 (reference)
  Fold change of MICs: 1 fold
[1]; Table 10, without pore, technical duplicate
  Minimum inhibitory concentration (MIC), EKO-35: 40 µg/mL
[1]; [20]
  Minimum Inhibitory Concentration, EKO-35: 40 µg/mL
[1]; synthetic efflux substrates of FIG. 12
  susceptibility of EKO-35 to the compound: susceptible
[2]; Table 10, without pore
  Minimum inhibitory concentration (MIC), ΔtolC: 1.25 µg/mL
[2]; Table 13A, non-porinated
  Minimum Inhibitory Concentration, ΔtolC: 1.25 µg/mL
[3]; Table 10, without pore
  Minimum inhibitory concentration (MIC), K-12: 320 µg/mL
[3]; Table 13A, non-porinated
  Minimum Inhibitory Concentration, K-12: 320 µg/mL
[4]; EKO-35 araC::acrBD408A compared to EKO-35
  Fold change of MICs: 1 fold
[4]; [21]
  Minimum Inhibitory Concentration, EKO-35 araC::acrBD408A: 40 µg/mL
[5]; EKO-35 araC::acrB compared to EKO-35
  Fold change of MICs: 8 fold
[5]; [20]
  Minimum Inhibitory Concentration, EKO-35 araC::acrB: 320 µg/mL
[6]; EKO-35 araC::acrD compared to EKO-35
  Fold change of MICs: 8 fold
[6]; [20]
  Minimum Inhibitory Concentration, EKO-35 araC::acrD: 320 µg/mL
[7]; EKO-35 araC::acrEF compared to EKO-35
  Fold change of MICs: 8 fold
[7]; [20]
  Minimum Inhibitory Concentration, EKO-35 araC::acrEF: 320 µg/mL
[8]; EKO-35 araC::emrAB compared to EKO-35
  Fold change of MICs: 8 fold
[8]; [21]
  Minimum Inhibitory Concentration, EKO-35 araC::emrAB: 320 µg/mL
[9]; EKO-35 araC::emrKY compared to EKO-35
  Fold change of MICs: 1 fold
[9]; [21]
  Minimum Inhibitory Concentration, EKO-35 araC::emrKY: 40 µg/mL
[10]; EKO-35 araC::macAB compared to EKO-35
  Fold change of MICs: 1 fold
[10]; [21]
  Minimum Inhibitory Concentration, EKO-35 araC::macAB: 40 µg/mL
[11]; EKO-35 araC::mdtBC compared to EKO-35
  Fold change of MICs: 1 fold
[11]; [21]
  Minimum Inhibitory Concentration, EKO-35 araC::mdtBC: 40 µg/mL
[12]; EKO-35 araC::mdtEF compared to EKO-35
  Fold change of MICs: 8 fold
[12]; [20]
  Minimum Inhibitory Concentration, EKO-35 araC::mdtEF: 320 µg/mL
[13]; EKO-35 araC::mexCD compared to EKO-35
  Fold change of MICs: 8 fold
[13]; [21]
  Minimum Inhibitory Concentration, EKO-35 araC::mexCD: 320 µg/mL
[14]; Table 10, with pore
  Minimum inhibitory concentration (MIC), Pore K-12: 320 µg/mL
[14]; Table 14A, porinated
  Minimum inhibitory concentration, K-12 (WT)-Pore: 320 µg/mL
[15]; Table 10, with pore
  Minimum inhibitory concentration (MIC), Pore ΔtolC: 1.25 µg/mL
[15]; Table 14A, porinated
  Minimum inhibitory concentration, ΔtolC-Pore: 1.25 µg/mL
[16]; EKO-35-Pore compared to EKO-35-Pore (reference)
  Fold changes of MICs: 1 fold
[16]; Table 10, with pore, technical duplicate
  Minimum inhibitory concentration (MIC), Pore EKO-35: 5 µg/mL
[16]; [22]
  Minimum inhibitory concentration, EKO-35-Pore: 5 µg/mL
[17]; EKO-35 araC::acr-B Pore compared to EKO-35-Pore
  Fold changes of MICs: 64 fold
[17]; [22]
  Minimum inhibitory concentration, EKO-35 araC::acrB Pore: 320 µg/mL
[18]; EKO-35 araC::mdtBC Pore compared to EKO-35-Pore
  Fold changes of MICs: 1 fold
[18]; EKO-35 araC::mdtBC Pore, technical duplicate
  Minimum inhibitory concentration: 5 µg/mL
[19]; EKO-35 araC::mdtEF Pore compared to EKO-35-Pore
  Fold changes of MICs: 8 fold
[19]; [22]
  Minimum inhibitory concentration, EKO-35 araC::mdtEF Pore: 40 µg/mL
